Read-outs that look alike come from different tables or passages of the source.
Key:
Assay in all cases: Cell proliferation assay (6 days, CellTiter-Glo)
Format in all cases: cell-based
[1] = system: WSU-FSCCL; details: Homo sapiens, 144 h, FL, EZH2 D185H (HET), read-out: AVERAGE GROWTH IC50
Description: (§1) Thus, Example 22 and Table 6 better reflect the inhibition of HZH2 inhibitors on cell lines, e.g. the lymphoma cell lines. DLBCL cell lines were the most sensitive to EZH2 inhibition (FIG. 11a). […] Evaluation of GSK126 in additional lymphoma cell lines and extensive genomic and epigenomic characterization will be required to fully elucidate the determinants of sensitivity among lymphoma subtypes.
(§2) Biochemical assays utilized the 5-member PRC2 complex (human Flag-EZH2, EED, SUZ12, AEBP2, RbAp48) containing either WT or mutant EZH2, [^3H-]SAM and the indicated peptide substrate; reactions were incubated for 30 minutes. Global histone modification levels were determined by ELISA or western blot methods using antibodies specific for total histone H3, H3K27me1, H3K27me2, or H3K27me3. Cell proliferation and Caspase-3/7 activity were assessed using CellTiter-Glo and Caspase-Glo 3/7 (Promega), respectively. Gene expression profiling was conducted using Affymetrix Human Genome U133 Plus 2.0 microarrays. Differentially-expressed probe sets were determined by fitting the data to a linear model using the limma statistical package (http://www.bioconductor.org) and carrying out pair-wise contrasts of treated versus control. Significant probe sets were filtered for detection (log2 signal threshold of 8), an average fold-change >2 or <−2, or >1.5 or <−1.5, where indicated, with p-values adjusted for multiple testing correction by FDR (Benjamini Hochberg)<0.1. H3K27me3 ChIP reads were aligned using Bowtie (56). H3K27me3 enrichment peaks were identified using SICER (57) with optimized parameters. A custom PERL script was utilized to quantify the average basal H3K27me3 ChIP-seq tag density across gene sets. All in vivo studies were conducted after review by the Institutional Animal Care and Use Committee at GSK and in accordance with the GSK Policy on the Care, Welfare and Treatment of Laboratory Animals. GSK126 and vehicle were administered to mice intraperitoneally. Two-tailed t-tests were conducted assuming two samples of equal variance.
(§3) The optimal cell seeding was determined empirically for all cell lines by examining the growth of a wide range of seeding densities in a 384-well format to identify conditions that permitted proliferation for 6 days. […] Plates were incubated for 6 days at 37° C. in 5% CO2. Cells were then lysed with CellTiter-Glo (Promega) and chemiluminescent signal was detected with a TECAN Safire2 microplate reader. In addition, an untreated plate of cells was harvested at the time of compound addition (T0) to quantify the starting number of cells. CTG values obtained after the 6 day treatment were expressed as a percent of the T0 value and plotted against compound concentration.

[2] = system: SU-DHL-16; details: Homo sapiens, 144 h, B-NHL, EZH2 D185H (HET), read-out: AVERAGE GROWTH IC50
Description: as §1, §2, §3

[3] = system: HT; details: Homo sapiens, 144 h, DLBCL, EZH2 WT, read-out: AVERAGE GROWTH IC50
Description: as §1, §2, §3

[4] = system: WSU-NHL; details: Homo sapiens, 144 h, FL, EZH2 D185H (HET), read-out: AVERAGE GROWTH IC50
Description: as §1, §2, §3

[5] = system: WILL-1; details: Homo sapiens, 144 h, DLBCL, EZH2 D185H (HET), read-out: AVERAGE GROWTH IC50
Description: as §1, §2, §3

[6] = system: Daudi; details: Homo sapiens, 144 h, BURKITT, EZH2 WT, read-out: AVERAGE GROWTH IC50
Description: as §1, §2, §3

[7] = system: RC-K8; details: Homo sapiens, RCK8, 144 h, B-NHL, EZH2 D185H (HET), read-out: AVERAGE GROWTH IC50
Description: as §1, §2, §3

[8] = system: Hs 445; details: Homo sapiens, 144 h, HODGKIN'S, EZH2 WT, read-out: AVERAGE GROWTH IC50
Description: as §1, §2, §3

[9] = system: SC-1; details: Homo sapiens, 144 h, FL, EZH2 D185H (HET), read-out: AVERAGE GROWTH IC50
Description: as §1, §2, §3

[10] = system: DB; details: Homo sapiens, 144 h, DLBCL, EZH2 Y641N (HET), read-out: AVERAGE GROWTH IC50
Description: as §1, §2, §3

[11] = system: SU-DHL-6; details: Homo sapiens, 144 h, DLBCL, EZH2 Y641N (HET), read-out: AVERAGE GROWTH IC50
Description: as §1, §2, §3

[12] = system: OCI-LY-19; details: Homo sapiens, OCI-LY19, 144 h, DLBCL, EZH2 WT, read-out: AVERAGE GROWTH IC50
Description: as §1, §2, §3

[13] = system: Raji; details: Homo sapiens, 144 h, BURKITT, EZH2 WT, read-out: AVERAGE GROWTH IC50
Description: as §1, §2, §3

[14] = system: HD-MY-Z; details: Homo sapiens, 144 h, HODGKIN'S, EZH2 WT, read-out: AVERAGE GROWTH IC50
Description: as §1, §2, §3

[15] = system: WSU-DLCL2; details: Homo sapiens, WSUDLCL2, 144 h, DLBCL, EZH2 Y641F (HET), read-out: AVERAGE GROWTH IC50
Description: as §1, §2, §3

[16] = system: Jiyoye; details: Homo sapiens, 144 h
Description: as §1, §2, §3

[17] = system: SU-DHL-10; details: Homo sapiens, SU-DHL10, 144 h, DLBCL, EZH2 Y641F (HET), read-out: AVERAGE GROWTH IC50
Description: as §1, §2, §3

[18] = system: NU-DUL-1; details: Homo sapiens, 144 h, B-NHL, EZH2 WT, read-out: AVERAGE GROWTH IC50
Description: as §1, §2, §3

[19] = system: P3HR-1; details: Homo sapiens, 144 h, BURKITT, EZH2 WT, read-out: AVERAGE GROWTH IC50
Description: as §1, §2, §3

[20] = system: CA46; details: Homo sapiens, 144 h, BURKITT, EZH2 D185H (HET), read-out: AVERAGE GROWTH IC50
Description: as §1, §2, §3

[21] = system: U-2932; details: Homo sapiens, U2932, 144 h, DLBCL, EZH2 WT, read-out: AVERAGE GROWTH IC50
Description: as §1, §2, §3

**Q.** For `CC[C@H](C)n1cc(C)c2c(C(=O)NCc3c(C)cc(C)[nH]c3=O)cc(-c3ccc(N4CCNCC4)nc3)cc21` [GSK126], which IC50 [1] is on record?
**A.** The IC50 was 12 µM.

**Q.** What about the IC50 [2] of the same molecule?
**A.** The IC50 was 3.28 µM.

**Q.** What about the IC50 [3] of the same molecule?
**A.** The IC50 was 0.516 µM.

**Q.** And the IC50 [4]?
**A.** The IC50 was 3.54 µM.

**Q.** And the IC50 [5]?
**A.** Its IC50 is 5.53 µM.

**Q.** And the IC50 [6]?
**A.** The IC50 was 1.27 µM.

**Q.** And the IC50 [7]?
**A.** Its IC50 is 4.53 µM.

**Q.** What about the IC50 [8] of the same molecule?
**A.** Its IC50 is 3.53 µM.

**Q.** What about the IC50 [9] of the same molecule?
**A.** Its IC50 is 3.73 µM.

**Q.** What about the IC50 [10] of the same molecule?
**A.** The IC50 was 0.861 µM.

**Q.** What about the IC50 [11] of the same molecule?
**A.** The IC50 was 0.582 µM.

**Q.** And the IC50 [12]?
**A.** Its IC50 is 1.02 µM.

**Q.** And the IC50 [13]?
**A.** The IC50 was 7.87 µM.

**Q.** What about the IC50 [14] of the same molecule?
**A.** Its IC50 is 10.7 µM.

**Q.** And the IC50 [15]?
**A.** The IC50 was 0.134 µM.

**Q.** And the IC50 ([16]; JIYOYE, BURKITT, EZH2 WT, read-out: AVERAGE GROWTH IC50)?
**A.** Its IC50 is 0.232 µM.

**Q.** And the IC50 ([16]; Jiyoye, BL cell line with WT EZH2, read-out: growth IC50)?
**A.** Its IC50 is 0.23 µM.

**Q.** What about the IC50 [17] of the same molecule?
**A.** The IC50 was 0.448 µM.

**Q.** And the IC50 [18]?
**A.** Its IC50 is 17.1 µM.

**Q.** And the IC50 [19]?
**A.** The IC50 was 3.21 µM.

**Q.** What about the IC50 [20] of the same molecule?
**A.** The IC50 was 6.58 µM.

**Q.** And the IC50 [21]?
**A.** Its IC50 is 2.94 µM.

Source: patent publication US20170348306A1, “METHODS OF TREATING CANCER” (GLAXOSMITHKLINE LLC, priority 2011, published 2017)
